Source: paper PMC11480511 (Scientific Reports, 2024)

Legend:
[1] = tested on: HL-60(TB); assay: NCI single-dose growth inhibition screen; format: cell-based; conditions: Homo sapiens; Leukemia HL-60(TB); single dose 10^−5 M
[2] = tested on: K-562; assay: NCI single-dose growth inhibition screen; format: cell-based; conditions: Homo sapiens, K562; Leukemia K-562; single dose 10^−5 M
[3] = tested on: NCI-H522; assay: NCI single-dose growth inhibition screen; format: cell-based; conditions: Homo sapiens; Non-Small Cell Lung Cancer NCI-H522; single dose 10^−5 M
[4] = tested on: HCT-116; assay: NCI single-dose growth inhibition screen; format: cell-based; conditions: Homo sapiens; Colon Cancer HCT-116; single dose 10^−5 M
[5] = tested on: SF-539; assay: NCI single-dose growth inhibition screen; format: cell-based; conditions: Homo sapiens; CNS Cancer SF-539; single dose 10^−5 M
[6] = tested on: SNB-19; assay: NCI single-dose growth inhibition screen; format: cell-based; conditions: Homo sapiens; CNS Cancer SNB-19; single dose 10^−5 M
[7] = tested on: SNB-75; assay: NCI single-dose growth inhibition screen; format: cell-based, human; conditions: single dose 10^−5 M; for inhibition at 10 µM: Homo sapiens, SNB-75, CNS Cancer SNB-75
[8] = tested on: M14; assay: NCI single-dose growth inhibition screen; format: cell-based; conditions: Homo sapiens; Melanoma M14; single dose 10^−5 M
Protocol: Following the guidelines established by the drug evaluation department of the National Cancer Institute (NCI), USA, all target compounds 3a–l were examined against 60 cancer cell lines at a single concentration of 10 µM.
The anti-cancer potential of the tested compounds was evaluated at the National cancer institute (NCI), USA, against 9 panels of 60 various cell lines derived from nine human tumours available usually at NCI library. The procedures for the screening were described in details in NCI website (dttp://www.dtp.nci.nih.gov.) and were done according to NCI protocols[60] . The anticancer screening was carried out at single dose of 10^−5 M, NCI, Bethesda, USA. The results obtained as growth inhibition (%).

[9] = tested on: MDA-MB-435; assay: NCI single-dose growth inhibition screen; format: cell-based; conditions: Homo sapiens; Melanoma MDA-MB-435; single dose 10^−5 M
[10] = tested on: SK-MEL-2; assay: NCI single-dose growth inhibition screen; format: cell-based; conditions: Homo sapiens; Melanoma SK-MEL-2; single dose 10^−5 M
[11] = tested on: SK-MEL-28; assay: NCI single-dose growth inhibition screen; format: cell-based; conditions: Homo sapiens; Melanoma SK-MEL-28; single dose 10^−5 M
[12] = tested on: UACC-62; assay: NCI single-dose growth inhibition screen; format: cell-based; conditions: Homo sapiens; Melanoma UACC-62; single dose 10^−5 M
[13] = tested on: IGROV1; assay: NCI single-dose growth inhibition screen; format: cell-based; conditions: Homo sapiens, IGROV-1; Ovarian Cancer IGROV1; single dose 10^−5 M
[14] = tested on: RXF 393; assay: NCI single-dose growth inhibition screen; format: cell-based; conditions: Homo sapiens; Renal Cancer RXF 393; single dose 10^−5 M
[15] = tested on: TK-10; assay: NCI single-dose growth inhibition screen; format: cell-based; conditions: Homo sapiens; Renal Cancer TK-10; single dose 10^−5 M
[16] = tested on: UO-31; assay: NCI single-dose growth inhibition screen; format: cell-based, human; conditions: single dose 10^−5 M; for inhibition at 10 µM: Homo sapiens, UO-31, Renal Cancer UO-31
[17] = tested on: MCF7; assay: NCI single-dose growth inhibition screen; format: cell-based, human; conditions: Homo sapiens, MCF7, Breast Cancer MCF7; single dose 10^−5 M
[18] = tested on: BT-549; assay: NCI single-dose growth inhibition screen; format: cell-based; conditions: Homo sapiens; Breast Cancer BT-549; single dose 10^−5 M
[19] = tested on: T-47D; assay: NCI single-dose growth inhibition screen; format: cell-based; conditions: Homo sapiens, T47D; Breast Cancer T-47D; single dose 10^−5 M
[20] = tested on: MDA-MB-468; assay: NCI single-dose growth inhibition screen; format: cell-based; conditions: Homo sapiens; Breast Cancer MDA-MB-468; single dose 10^−5 M
[21] = tested on: A498 renal cancer cell line; assay: cells; conditions: Homo sapiens; for viability at 0.4 µM / viability at 1.6 µM / viability at 25 µM / viability at 100 µM: A498
[22] = molecular target: T1, topoisomerase IIβ (Homo sapiens, UniProt Q02880); assay: Topoisomerase II inhibition, human DNA topoisomerase Elisa kit; format: biochemical; conditions: ± SEM; read-out: Topoisomerase II IC50 µM ± SEM
T1 construct: purchased
T1 sequence (Q02880 whole entry): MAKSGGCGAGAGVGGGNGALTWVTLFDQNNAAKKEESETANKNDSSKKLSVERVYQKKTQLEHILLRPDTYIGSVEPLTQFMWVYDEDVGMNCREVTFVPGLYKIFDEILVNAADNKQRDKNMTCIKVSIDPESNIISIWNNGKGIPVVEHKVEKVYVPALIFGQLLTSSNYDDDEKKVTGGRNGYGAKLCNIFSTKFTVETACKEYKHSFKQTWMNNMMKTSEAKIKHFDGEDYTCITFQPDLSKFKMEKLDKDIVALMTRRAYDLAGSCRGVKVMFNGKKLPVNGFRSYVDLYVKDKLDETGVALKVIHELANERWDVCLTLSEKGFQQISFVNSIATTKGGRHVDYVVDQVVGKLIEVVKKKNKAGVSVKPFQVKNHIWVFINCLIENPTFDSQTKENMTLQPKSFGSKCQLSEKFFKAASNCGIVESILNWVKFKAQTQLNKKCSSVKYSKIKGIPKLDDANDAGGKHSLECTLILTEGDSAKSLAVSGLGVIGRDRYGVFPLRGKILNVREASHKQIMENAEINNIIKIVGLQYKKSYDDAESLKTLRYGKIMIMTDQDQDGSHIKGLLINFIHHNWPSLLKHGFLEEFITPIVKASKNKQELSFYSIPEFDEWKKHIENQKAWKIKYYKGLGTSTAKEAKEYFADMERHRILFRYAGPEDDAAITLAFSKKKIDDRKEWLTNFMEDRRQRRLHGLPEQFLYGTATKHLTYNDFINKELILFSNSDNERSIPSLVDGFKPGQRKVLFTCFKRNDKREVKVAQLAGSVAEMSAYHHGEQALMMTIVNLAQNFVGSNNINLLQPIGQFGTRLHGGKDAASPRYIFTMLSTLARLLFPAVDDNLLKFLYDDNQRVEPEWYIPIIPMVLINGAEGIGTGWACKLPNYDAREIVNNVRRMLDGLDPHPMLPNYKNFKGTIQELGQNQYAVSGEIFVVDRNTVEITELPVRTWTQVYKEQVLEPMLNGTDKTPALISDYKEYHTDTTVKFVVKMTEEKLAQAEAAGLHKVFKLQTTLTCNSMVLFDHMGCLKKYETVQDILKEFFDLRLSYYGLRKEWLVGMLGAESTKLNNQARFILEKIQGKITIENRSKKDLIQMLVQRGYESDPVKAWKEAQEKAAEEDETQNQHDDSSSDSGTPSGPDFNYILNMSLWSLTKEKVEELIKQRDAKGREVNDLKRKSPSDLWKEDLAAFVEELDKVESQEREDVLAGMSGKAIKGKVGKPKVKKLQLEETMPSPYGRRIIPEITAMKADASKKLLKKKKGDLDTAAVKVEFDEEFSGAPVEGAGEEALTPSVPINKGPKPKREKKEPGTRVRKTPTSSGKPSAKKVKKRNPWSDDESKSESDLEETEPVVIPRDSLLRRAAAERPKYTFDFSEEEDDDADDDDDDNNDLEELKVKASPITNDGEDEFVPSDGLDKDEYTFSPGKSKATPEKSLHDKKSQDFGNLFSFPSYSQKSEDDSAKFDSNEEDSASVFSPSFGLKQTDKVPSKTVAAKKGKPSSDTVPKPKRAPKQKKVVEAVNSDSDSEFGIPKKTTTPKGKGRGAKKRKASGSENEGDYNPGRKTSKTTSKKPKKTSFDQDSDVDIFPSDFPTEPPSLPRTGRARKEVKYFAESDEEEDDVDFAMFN
Protocol: Two folds of serial dilution was accomplished after standards and the tested compounds were dissolved in sample diluent. Horseradish peroxidase (HRP-avidin) and biotin-conjugated antibody were diluted 10 times each. Each well received 100 µL of each concentration of the standard or test chemicals, which were then added and incubated at 37 °C for 60 min. […] The microtiter plate was rinsed three times and given room to aspirate. After that, the plate was incubated at 37 °C for 60 min with 100 µL of HRP-avidin solution added to each well. After that, the plate was aspirated and cleaned 5 times. Each well received 90 µL of TMB substrate, and the plate was incubated for 30 min. at 37 °C in a light-protected environment. Finally, stop solution (50 µL) was loaded, and within 5 min, the absorbance at 450 nm was measured spectrophotometrically.
Topoisomerase enzyme assay
Topoisomerase I and II inhibitory activity […]
topoisomerase IIβ inhibitory activity utilizing the human DNA topoisomerase Elisa kit.
Standards and the tested compound were dissolved in sample diluent and 2 folds serial dilution was achieved. Biotin-conjugated antibody and avidin conjugated Horseradish Peroxidase (HRP-avidin) were diluted to 10 folds. 100 μL of each concentration of standard or test compound were added to each well. Incubate at 37 °C for 1 h. The liquid in each well was removed. 10 0 μL of Biotin-conjugated antibody solution was added to each well followed by incubation for 1 h at 37 °C. The microtiter plate was allowed to aspirate and washed 3 times. 100 μL of avidin conjugated Horseradish Peroxidase (HRP -avidin) solution was added to each well and the plate was incubated for 1 h at 37 °C. The plate was aspirated and washed 5 times. 90 μL of TMB substrate were added to each well and the plate was incubated for 30 min at 37 °C and protected from light. 50 μL stop so lution was added. The absorbance was measured spectrophotometrically within 5 min at 450 nm .

Q: Which inhibition at 10 µM [1] does the source give for `COc1ccc(C=C2SC(=O)N(CCCC(=O)N3CCN(c4cc5c(cc4F)c(=O)c(C(=O)O)cn5C4CC4)CC3)C2=O)cc1` [3e, 1-cyclopropyl-6-fluoro-7-[4-[4-[5-[(4-methoxyphenyl)methylene]-2,4-dioxo-thiazolidin-3-yl]butanoyl]piperazin-1-yl]-4-oxoquinoline-3-carboxylic acid] here?
A: < 0%

Q: And the inhibition at 10 µM [2]?
A: < 0%

Q: And the inhibition at 10 µM [3]?
A: 25.7%

Q: And the inhibition at 10 µM [4]?
A: 0%

Q: And the inhibition at 10 µM [5]?
A: 6.5%

Q: And the inhibition at 10 µM [6]?
A: 3.8%

Q: And the inhibition at 10 µM [7]?
A: 12.6%

Q: And the inhibition at 10 µM [8]?
A: < 0%

Q: And the inhibition at 10 µM [9]?
A: < 0%

Q: And the inhibition at 10 µM [10]?
A: 6.5%

Q: What about the inhibition at 10 µM [11] of the same compound?
A: < 0%

Q: What about the inhibition at 10 µM [12] of the same compound?
A: 7%

Q: And the inhibition at 10 µM [13]?
A: < 0%

Q: What about the inhibition at 10 µM [14] of the same compound?
A: < 0%

Q: What about the inhibition at 10 µM [15] of the same compound?
A: 11.3%

Q: What about the inhibition at 10 µM [16] of the same compound?
A: 18.5%

Q: And the inhibition at 10 µM [17]?
A: < 0%

Q: And the inhibition at 10 µM [18]?
A: 10.3%

Q: And the inhibition at 10 µM [19]?
A: 0.6%

Q: What about the inhibition at 10 µM [20] of the same compound?
A: < 0%

Q: What about the viability at 0.4 µM [21] of the same compound?
A: 102%

Q: And the viability at 1.6 µM [21]?
A: 91.7%

Q: And the viability at 25 µM [21]?
A: 69.4%

Q: And the viability at 100 µM [21]?
A: 56.2%

Q: Which inhibition at 10 µM [1] does the source give for `O=C(O)c1cn(C2CC2)c2cc(N3CCN(C(=O)CCCN4C(=O)CSC4=O)CC3)c(F)cc2c1=O` [3 L, 1-Cyclopropyl-7-(4-(4-(2,4-dioxothiazolidin-3-yl)butanoyl)piperazin-1-yl)-6-fluoro-4-oxo-1,4-dihydroquinoline-3-carboxylic acid] here?
A: < 0%

Q: And the inhibition at 10 µM [2]?
A: < 0%

Q: What about the inhibition at 10 µM [4] of the same compound?
A: < 0%

Q: And the inhibition at 10 µM [5]?
A: 3.3%

Q: What about the inhibition at 10 µM [6] of the same compound?
A: 0%

Q: What about the “Growth Inhibition (%)” value ([7]; CNS Cancer SNB-75) of the same compound?
A: 51.1%

Q: And the inhibition at 10 µM [7]?
A: 51.1%

Q: What about the inhibition at 10 µM [8] of the same compound?
A: < 0%

Q: And the inhibition at 10 µM [9]?
A: < 0%

Q: What about the inhibition at 10 µM [10] of the same compound?
A: < 0%

Q: What about the inhibition at 10 µM [11] of the same compound?
A: 49.5%

Q: What about the inhibition at 10 µM [12] of the same compound?
A: 8.4%

Q: What about the inhibition at 10 µM [13] of the same compound?
A: 15.3%

Q: What about the inhibition at 10 µM [14] of the same compound?
A: 30.7%

Q: What about the inhibition at 10 µM [15] of the same compound?
A: 28.7%

Q: What about the inhibition at 10 µM [16] of the same compound?
A: 42%

Q: What about the “Growth Inhibition (%)” value ([16]; Renal Cancer UO-31) of the same compound?
A: 41.0%

Q: And the inhibition at 10 µM [17]?
A: < 0%

Q: And the inhibition at 10 µM [18]?
A: 4.8%

Q: And the inhibition at 10 µM [19]?
A: < 0%

Q: What about the inhibition at 10 µM [20] of the same compound?
A: 2.1%

Q: What about the IC50 [22] of the same compound?
A: 14.3 ± 0.78 µM

Q: What about the viability at 0.4 µM [21] of the same compound?
A: 92.2%

Q: And the viability at 1.6 µM [21]?
A: 80.2%

Q: What about the viability at 25 µM [21] of the same compound?
A: 59.6%

Q: And the viability at 100 µM [21]?
A: 49.1%

Q: And the IC50 ([21]; A498, read-out: In vitro cytotoxicity (IC50) A498 cell line (µM ± SEM))?
A: 80.7 ± 4.55 µM

Q: Which inhibition at 10 µM [1] does the source give for `O=C(O)c1cn(C2CC2)c2cc(N3CCN(C(=O)CCCN4C(=O)S/C(=C\c5ccc(Cl)cc5)C4=O)CC3)c(F)cc2c1=O` [3 h] here?
A: < 0%

Q: What about the inhibition at 10 µM [2] of the same compound?
A: 0.7%

Q: What about the inhibition at 10 µM [3] of the same compound?
A: 18.3%

Q: What about the inhibition at 10 µM [4] of the same compound?
A: 1.8%

Q: What about the inhibition at 10 µM [5] of the same compound?
A: 1.2%

Q: What about the inhibition at 10 µM [6] of the same compound?
A: 0%

Q: And the inhibition at 10 µM [7]?
A: 15.5%

Q: What about the inhibition at 10 µM [8] of the same compound?
A: 0.7%

Q: What about the inhibition at 10 µM [9] of the same compound?
A: < 0%

Q: And the inhibition at 10 µM [10]?
A: 7.3%

Q: What about the inhibition at 10 µM [11] of the same compound?
A: < 0%

Q: What about the inhibition at 10 µM [12] of the same compound?
A: 6.2%

Q: And the inhibition at 10 µM [13]?
A: < 0%

Q: And the inhibition at 10 µM [14]?
A: < 0%

Q: What about the inhibition at 10 µM [15] of the same compound?
A: 1.1%

Q: And the inhibition at 10 µM [16]?
A: 28%

Q: What about the inhibition at 10 µM [17] of the same compound?
A: < 0%

Q: And the inhibition at 10 µM [18]?
A: 3.8%

Q: What about the inhibition at 10 µM [19] of the same compound?
A: 2%

Q: And the inhibition at 10 µM [20]?
A: < 0%
